From paper PMC11845761, “Intestinal human carboxylesterase 2 (CES2) expression rescues drug metabolism and most metabolic syndrome phenotypes in global Ces2 cluster knockout mice” (Acta Pharmacologica Sinica, 2024)
Where two headings read alike, the source gives them in different places.

Experiments:
[1] = Tissue concentrations of vinorelbine and deacetylvinorelbine 4 h after i.v. vinorelbine in CES2-modified mice; assay type: in vivo, mouse; settings: male, mouse, intravenous, 10 mg/kg, i.v. vinorelbine 10 mg/kg
Protocol: (§1) For capecitabine 2-h experiments, 6–7 female mice received oral capecitabine (500 mg/kg, 10 μL/g), and tail vein blood samples were collected at 0.125, 0.25, 0.5 and 1 h after drug administration. For the vinorelbine 4-h experiment, 6-7 male mice received vinorelbine intravenously (10 mg/kg, 5 μL/g) or orally (10 mg/kg, 10 μL/g) using a blunt-ended needle. Tail vein blood samples were collected at 0.125, 0.25, 0.5, 1 and 2 h after drug administration. […] At the last time point in each experiment (2 or 4 h), mice were anesthetized with 5% isoflurane and blood was collected by cardiac puncture. […] Plasma was isolated from the blood by centrifugation at 9000 × g for 6 min at 4 °C, and the plasma fraction was collected and stored at −30 °C until analysis.
(§2) Concentrations of capecitabine (and its metabolites) and vinorelbine (and its metabolite) in mouse plasma samples and organ homogenates were determined using two independent validated high-performance liquid chromatography-tandem mass spectrometry assays.
(§3) Pharmacokinetic parameters were calculated by non-compartmental methods using the PK solver software. […] Differences were considered statistically significant when P < 0.05. All data are presented as mean ± SD.

[2] = Tissue concentrations of vinorelbine and deacetylvinorelbine 4 h after oral vinorelbine in CES2-modified mice; assay type: in vivo, mouse; settings: male, mouse, oral, 10 mg/kg, oral vinorelbine 10 mg/kg
Protocol: as §1, §2, §3

[3] = Plasma pharmacokinetics of vinorelbine and deacetylvinorelbine after oral vinorelbine in CES2-modified mice; assay type: in vivo, mouse; settings: mouse, plasma, oral vinorelbine 10 mg/kg, plasma; for AUC(0-t): male, po, 10 mg/kg, read-out: AUC0-4h; for Cmax: read-out: Cmax; for Tmax: read-out: Tmax
Protocol: as §1, §2, §3

[4] = design: method as in PMID 11822766; settings: 24 patients; oral vinorelbine 80 mg/m^2; cited from earlier work
[5] = Plasma pharmacokinetics of vinorelbine and deacetylvinorelbine after i.v. vinorelbine in CES2-modified mice; settings: male, mouse, plasma, iv, 10 mg/kg, AUC0-4h, i.v. vinorelbine 10 mg/kg
Protocol: In order to minimize variation among individuals, mice were fasted for 3 h before drug was administered orally or intravenously. […] For the vinorelbine 4-h experiment, 6-7 male mice received vinorelbine intravenously (10 mg/kg, 5 μL/g) or orally (10 mg/kg, 10 μL/g) using a blunt-ended needle. […] Time points of termination were chosen to allow both reasonable assessment of the plasma exposure of the compound and its main metabolites, and adequate measurement of tissue concentrations. In order to minimize the generation and use of mice, and as no pronounced sex differences were expected, female mice were used for the capecitabine studies and male mice for the vinorelbine studies. Tail vein blood sample collection (~50 μL) was performed using microvettes containing dipotassium-EDTA. All blood samples were rapidly placed on ice to limit any ongoing hydrolysis. At the last time point in each experiment (2 or 4 h), mice were anesthetized with 5% isoflurane and blood was collected by cardiac puncture. Cardiac puncture blood samples (600–800 μL) were collected in Eppendorf tubes containing heparin as an anticoagulant. The mice were then sacrificed by cervical dislocation and brain, liver, kidney, lung, small intestine and testis were rapidly removed. Plasma was isolated from the blood by centrifugation at 9000 × g for 6 min at 4 °C, and the plasma fraction was collected and stored at −30 °C until analysis. Organs were homogenized with 4% (w/v) bovine serum albumin and stored at −30 °C until analysis. Relative metabolite-to-parental drug ratio after drug administration was calculated by determining metabolite tissue concentration relative to corresponding parental drug concentration at the last time point.
as §2
Pharmacokinetic parameters were calculated by non-compartmental methods using the PK solver software. The area under the plasma concentration-time curve (AUC) was calculated using the trapezoidal rule, without extrapolating to infinity. The peak plasma concentration (Cmax) and the time of maximum plasma concentration (Tmax) were estimated from the original (individual mouse) data. One-way analysis of variance (ANOVA) was used when multiple groups were compared and the Tukey’s test post hoc correction was used to accommodate multiple testing. The two-sided unpaired Student’s t-test was used when treatments or differences between two specific groups were compared. Kruskal-Wallis rank test was used for semi-quantitative assessment for (H&E)-staining of white adipose tissue and Oil Red O-staining of liver. All statistical analyses were performed using the software GraphPad Prism 8 (GraphPad Software Inc., La Jolla, CA, USA). All the linear data were log-transformed before statistical tests were applied. Differences were considered statistically significant when P < 0.05. All data are presented as mean ± SD.

[6] = colon, male Ces2^–/– mice, read-out: Ccolon (colon concentration)
[7] = colon, male Ces2^–/–A mice, read-out: Ccolon (colon concentration)
[8] = colon, male Ces2^–/–V mice, read-out: Ccolon (colon concentration)
[9] = colon, male wild-type mice, read-out: Ccolon (colon concentration)
[10] = liver, male Ces2^–/– mice, read-out: Cliver (liver concentration)
[11] = liver, male Ces2^–/–A mice, read-out: Cliver (liver concentration)
[12] = liver, male Ces2^–/–V mice, read-out: Cliver (liver concentration)
[13] = liver, male wild-type mice, read-out: Cliver (liver concentration)
[14] = small intestine contents, male Ces2^–/– mice, read-out: CSIC (small intestine contents concentration)
[15] = small intestine contents, male Ces2^–/–A mice, read-out: CSIC (small intestine contents concentration)
[16] = small intestine contents, male Ces2^–/–V mice, read-out: CSIC (small intestine contents concentration)
[17] = small intestine contents, male wild-type mice, read-out: CSIC (small intestine contents concentration)
[18] = small intestine tissue, male Ces2^–/– mice, read-out: CSI (small intestine tissue concentration)
[19] = small intestine tissue, male Ces2^–/–A mice, read-out: CSI (small intestine tissue concentration)
[20] = small intestine tissue, male Ces2^–/–V mice, read-out: CSI (small intestine tissue concentration)
[21] = small intestine tissue, male wild-type mice, read-out: CSI (small intestine tissue concentration)

Q: For `CCC1=C[C@@H]2CN(C1)Cc1c([nH]c3ccccc13)[C@@](C(=O)OC)(c1cc3c(cc1OC)N(C)[C@H]1[C@@](O)(C(=O)OC)[C@H](OC(C)=O)[C@]4(CC)C=CCN5CC[C@]31[C@@H]54)C2` [Vinorelbine, reference compound], which concentration at 4 h [1, 6] is on record?
A: 5620 ± 3000 ng/g

Q: And the concentration at 4 h [1, 7]?
A: 5780 ± 3090 ng/g

Q: What about the concentration at 4 h [1, 8] of the same compound?
A: 6740 ± 1470 ng/g

Q: What about the concentration at 4 h [1, 9] of the same compound?
A: 2360 ± 692 ng/g

Q: What about the concentration at 4 h [1, 10] of the same compound?
A: 23400 ± 6110 ng/g

Q: What about the concentration at 4 h [1, 11] of the same compound?
A: 24300 ± 3720 ng/g

Q: What about the concentration at 4 h [1, 12] of the same compound?
A: 24700 ± 4450 ng/g

Q: And the concentration at 4 h [1, 13]?
A: 12200 ± 4960 ng/g

Q: What about the concentration at 4 h [1, 14] of the same compound?
A: 40100 ± 25500 ng/g

Q: What about the concentration at 4 h [1, 15] of the same compound?
A: 47200 ± 30900 ng/g

Q: And the concentration at 4 h [1, 16]?
A: 48400 ± 27000 ng/g

Q: And the concentration at 4 h [1, 17]?
A: 27700 ± 13400 ng/g

Q: What about the concentration at 4 h [1, 18] of the same compound?
A: 5920 ± 1350 ng/g

Q: What about the concentration at 4 h [1, 19] of the same compound?
A: 5600 ± 644 ng/g

Q: And the concentration at 4 h [1, 20]?
A: 7680 ± 2240 ng/g

Q: And the concentration at 4 h [1, 21]?
A: 3470 ± 858 ng/g

Q: What about the concentration at 4 h [2, 6] of the same compound?
A: 581 ± 175 ng/g

Q: And the concentration at 4 h [2, 7]?
A: 788 ± 189 ng/g

Q: And the concentration at 4 h [2, 8]?
A: 608 ± 203 ng/g

Q: What about the concentration at 4 h [2, 9] of the same compound?
A: 348 ± 136 ng/g

Q: What about the concentration at 4 h [2, 10] of the same compound?
A: 8470 ± 8150 ng/g

Q: What about the concentration at 4 h [2, 11] of the same compound?
A: 8520 ± 3440 ng/g

Q: And the concentration at 4 h [2, 12]?
A: 8300 ± 2000 ng/g

Q: What about the concentration at 4 h [2, 13] of the same compound?
A: 1530 ± 409 ng/g

Q: And the concentration at 4 h [2, 14]?
A: 159000 ± 46700 ng/g

Q: And the concentration at 4 h [2, 15]?
A: 177000 ± 73000 ng/g

Q: What about the concentration at 4 h [2, 16] of the same compound?
A: 114000 ± 19400 ng/g

Q: And the concentration at 4 h [2, 17]?
A: 77000 ± 29300 ng/g

Q: What about the concentration at 4 h [2, 18] of the same compound?
A: 18300 ± 4300 ng/g

Q: What about the concentration at 4 h [2, 19] of the same compound?
A: 18100 ± 3650 ng/g

Q: What about the concentration at 4 h [2, 20] of the same compound?
A: 15600 ± 6980 ng/g

Q: What about the concentration at 4 h [2, 21] of the same compound?
A: 10800 ± 3700 ng/g

Q: What about the AUC(0-t) ([3]; male Ces2^–/– mice) of the same compound?
A: 491 ± 135 ng·h/mL

Q: And the AUC(0-t) ([3]; male Ces2^–/–A mice)?
A: 730 ± 270 ng·h/mL

Q: What about the AUC(0-t) ([3]; male Ces2^–/–V mice) of the same compound?
A: 585 ± 186 ng·h/mL

Q: What about the AUC(0-t) ([3]; male wild-type mice) of the same compound?
A: 362 ± 81 ng·h/mL

Q: And the Cmax ([3]; male Ces2^–/– mice)?
A: 188 ± 63 ng/mL

Q: What about the Tmax ([3]; male Ces2^–/– mice) of the same compound?
A: 1.9 ± 1.9 h

Q: What about the Cmax ([3]; male Ces2^–/–A mice) of the same compound?
A: 333 ± 99 ng/mL

Q: And the Tmax ([3]; male Ces2^–/–A mice)?
A: 1.3 ± 0.9 h

Q: And the Cmax ([3]; male Ces2^–/–V mice)?
A: 243 ± 110 ng/mL

Q: And the Tmax ([3]; male Ces2^–/–V mice)?
A: 2.4 ± 1.5 h

Q: What about the Cmax ([3]; male wild-type mice) of the same compound?
A: 149 ± 59 ng/mL

Q: What about the Tmax ([3]; male wild-type mice) of the same compound?
A: 1.7 ± 0.7 h

Q: What about the “plasma Cmax” value [4] of the same compound?
A: 133.4 ± 42.3 ng/mL

Q: What about the AUC(0-t) ([5]; male Ces2^–/– mice) of the same compound?
A: 6040 ± 1950 ng·h/mL

Q: And the AUC(0-t) ([5]; male Ces2^–/–A mice)?
A: 5950 ± 3250 ng·h/mL

Q: What about the AUC(0-t) ([5]; male Ces2^–/–V mice) of the same compound?
A: 9790 ± 5670 ng·h/mL

Q: And the AUC(0-t) ([5]; male wild-type mice)?
A: 8140 ± 4780 ng·h/mL
